Data: US20260125346A1, “Isoquinolinone Derivatives and 4H-Quinolizinone Derivatives and Pharmaceutical Compositions Thereof for the Treatment of Disease” (BeOne Medicines I GmbH, priority 2023, published 2026)

Key:
WT cell line SK-BR-3 = experiment: Phospho-AKT (Ser473) Inhibition Assay (HTRF), SK-BR-3; format: cell-based; settings: Homo sapiens; SK-BR-3, 1 hour treatment; read-out: p-AKT Inhibition assay (S473) IC50 SK-BR-3
How it was run: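 SK-BR-3 (PI3Kα WT) cells seeded overnight in MEM with insulin, then treated 1 h with 11-point 1:3 dilutions (10 μM to 0.1 nM, 0.1% DMSO). Lysates read for phospho-AKT Ser473 by HTRF after 4 h antibody incubation at room temperature. IC50 from 4-parameter fit, % inhibition normalized to DMSO (max) and 10 μM GDC0077 (min).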

[1] = biological target: PI3Kα (p110/p85) kinase (wild type, "WT") (Homo sapiens, UniProt P42336); experiment: PI3Kα (p110/p85) kinase ADP-Glo Assay; format: biochemical; settings: 25 uM ATP
How it was run: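 Wild-type PI3Kα p110/p85 preincubated 30 min at RT with PI(4,5)P2:PS substrate ([…]) and compound ([…]) in HEPES pH7.5 buffer with MgCl2, DTT and BSA; reaction started with 25 µM ATP for 120 min at RT. ADP measured by ADP-Glo luminescence; IC50 from four-parameter logistic fit.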

[2] = biological target: PI3Kα (p110[H1047R]/p85) kinase (Homo sapiens, UniProt P42336, H1047R); experiment: PI3Kα (p110[H1047R]/p85) kinase ADP-Glo Assay; format: biochemical; settings: 25 uM ATP; for selectivity: WT/H1047R: ADP-Glo Assay IC50 ratio
How it was run: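 PI3Kα H1047R/p85 pre-incubated 30 min at room temperature with PI(4,5)P2:PS substrate ([…]) and compound ([…]) in HEPES pH 7.5 buffer with MgCl2; ATP ([…]) then added for 120 min. ADP quantified by ADP-Glo luminescence; IC50 from four-parameter logistic fit.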

Sequence of PI3Kα (p110[H1047R]/p85) kinase (P42336 whole entry H1047R): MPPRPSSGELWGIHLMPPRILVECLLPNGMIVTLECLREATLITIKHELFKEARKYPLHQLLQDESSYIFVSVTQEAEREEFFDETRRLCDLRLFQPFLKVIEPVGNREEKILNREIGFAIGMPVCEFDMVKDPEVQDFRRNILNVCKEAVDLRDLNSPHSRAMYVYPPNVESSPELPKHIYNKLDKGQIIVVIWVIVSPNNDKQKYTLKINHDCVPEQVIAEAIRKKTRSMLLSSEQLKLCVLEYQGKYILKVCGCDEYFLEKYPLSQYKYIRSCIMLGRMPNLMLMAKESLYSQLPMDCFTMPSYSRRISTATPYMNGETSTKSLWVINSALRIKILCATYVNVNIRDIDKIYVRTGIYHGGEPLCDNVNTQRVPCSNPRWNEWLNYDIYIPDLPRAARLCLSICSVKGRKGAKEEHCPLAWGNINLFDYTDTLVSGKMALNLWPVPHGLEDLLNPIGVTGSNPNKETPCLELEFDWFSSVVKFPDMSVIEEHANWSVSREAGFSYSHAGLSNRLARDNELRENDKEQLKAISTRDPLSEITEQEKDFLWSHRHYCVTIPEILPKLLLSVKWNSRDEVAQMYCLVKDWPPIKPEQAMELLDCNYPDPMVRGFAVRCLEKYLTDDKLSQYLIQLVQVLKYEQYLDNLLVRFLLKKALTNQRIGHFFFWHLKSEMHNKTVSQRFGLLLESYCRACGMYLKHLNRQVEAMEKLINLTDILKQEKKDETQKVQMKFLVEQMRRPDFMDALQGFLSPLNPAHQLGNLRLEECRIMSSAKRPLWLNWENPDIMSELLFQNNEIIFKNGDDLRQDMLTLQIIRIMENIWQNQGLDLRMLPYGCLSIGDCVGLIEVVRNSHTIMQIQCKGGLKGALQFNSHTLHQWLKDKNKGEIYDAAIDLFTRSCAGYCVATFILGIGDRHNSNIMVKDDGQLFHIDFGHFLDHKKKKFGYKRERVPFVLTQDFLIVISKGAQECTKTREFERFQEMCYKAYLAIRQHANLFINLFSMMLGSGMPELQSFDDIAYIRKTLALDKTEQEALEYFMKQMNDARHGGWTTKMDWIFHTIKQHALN
Sequence of PI3Kα (p110[H1047R]/p85) kinase (P27986 whole entry partner): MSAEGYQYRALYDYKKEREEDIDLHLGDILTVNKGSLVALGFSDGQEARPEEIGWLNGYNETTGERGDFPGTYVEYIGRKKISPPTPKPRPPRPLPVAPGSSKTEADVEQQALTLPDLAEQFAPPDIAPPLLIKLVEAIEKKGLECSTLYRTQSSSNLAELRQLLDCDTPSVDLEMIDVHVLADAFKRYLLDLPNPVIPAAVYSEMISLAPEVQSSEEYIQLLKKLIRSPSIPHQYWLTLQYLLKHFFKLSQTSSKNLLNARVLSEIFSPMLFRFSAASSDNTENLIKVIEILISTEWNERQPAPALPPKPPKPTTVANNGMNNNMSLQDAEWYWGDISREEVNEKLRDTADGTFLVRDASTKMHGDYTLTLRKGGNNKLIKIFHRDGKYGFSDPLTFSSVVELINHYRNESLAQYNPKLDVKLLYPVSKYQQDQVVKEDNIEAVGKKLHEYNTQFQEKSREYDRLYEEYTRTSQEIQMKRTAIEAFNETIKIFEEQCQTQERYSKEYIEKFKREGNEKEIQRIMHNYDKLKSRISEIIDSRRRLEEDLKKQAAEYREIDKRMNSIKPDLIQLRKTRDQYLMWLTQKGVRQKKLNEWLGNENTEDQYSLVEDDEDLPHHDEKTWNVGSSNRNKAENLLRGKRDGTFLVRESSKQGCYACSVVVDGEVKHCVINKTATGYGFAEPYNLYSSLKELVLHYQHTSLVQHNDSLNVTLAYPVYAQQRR
Sequence of PI3Kα (p110/p85) kinase (wild type, "WT") (P42336 whole entry): as the sequence (P42336 whole entry H1047R) above, with R1047H counted along it
Sequence of PI3Kα (p110/p85) kinase (wild type, "WT") (P27986 whole entry partner): as the sequence (P27986 whole entry partner) above

Compound	IC50 (WT cell line SK-BR-3) [µM]	IC50 [1] [µM]	IC50 [2] [µM]	selectivity: WT/H1047R [2]
Cc1cc(C(C)Nc2ccccc2C(=O)O)c2cc(-c3ccc(F)cc3)n(-c3nccs3)c(=O)c2c1 (centres unmarked) [Example 71, 2-((1-(3-(4-fluorophenyl)-7-methyl-1-oxo-2-(thiazol-2-yl)-1,2-dihydroisoquinolin-5-yl)ethyl)amino)benzoic acid]	5.59	14.2	0.312	45.7
Cc1cc(C(C)Nc2ccccc2C(=O)O)c2cc(-c3ccc(N4CCC(C)(O)CC4)nc3)n(C)c(=O)c2c1 (centres unmarked) [Example 72, 2-((1-(3-(6-(4-hydroxy-4-methylpiperidin-1-yl)pyridin-3-yl)-2,7-dimethyl-1-oxo-1,2-dihydroisoquinolin-5-yl)ethyl)amino)benzoic acid]	> 10	20.5	1.07	19.2
Cc1cc(C(C)Nc2ccccc2C(=O)O)c2cc(-c3ccc(C4(O)CCOCC4)cc3)n(C)c(=O)c2c1 (centres unmarked) [Example 73, 2-((1-(3-(4-(4-hydroxytetrahydro-2H-pyran-4-yl)phenyl)-2,7-dimethyl-1-oxo-1,2-dihydroisoquinolin-5-yl)ethyl)amino)benzoic acid]	> 10	26.1	1.03	25.4
COC1(c2ccc(-c3cc4c(C(C)Nc5ccccc5C(=O)O)cc(C)cc4c(=O)n3C)cc2)CCOCC1 (centres unmarked) [Example 74, 2-((1-(3-(4-(4-methoxytetrahydro-2H-pyran-4-yl)phenyl)-2,7-dimethyl-1-oxo-1,2-dihydroisoquinolin-5-yl)ethyl)amino)benzoic acid]	4.39	13.1	0.729	18.0
Cc1cc(C(C)Nc2ccccc2C(=O)O)c2cc(-c3ccc4c(c3)C(=O)N(C)C4)n(C)c(=O)c2c1 (centres unmarked) [Example 75, 2-((1-(2,7-dimethyl-3-(2-methyl-3-oxoisoindolin-5-yl)-1-oxo-1,2-dihydroisoquinolin-5-yl)ethyl)amino)benzoic acid]	> 10	31.4	0.974	32.3
Cc1cc(C(C)Nc2ccccc2C(=O)O)c2cc(C3=CCN(c4ccccc4)C3)n(C)c(=O)c2c1 (centres unmarked) [Example 76, 2-((1-(2,7-dimethyl-1-oxo-3-(1-phenyl-2,5-dihydro-1H-pyrrol-3-yl)-1,2-dihydroisoquinolin-5-yl)ethyl)amino)benzoic acid]	5.34	11.8	0.516	22.8
Cc1cc(C(C)Nc2ccccc2C(=O)O)c2cc(-c3ccn(-c4ccccc4)c3)n(C)c(=O)c2c1 (centres unmarked) [Example 77, 2-((1-(2,7-dimethyl-1-oxo-3-(1-phenyl-1H-pyrrol-3-yl)-1,2-dihydroisoquinolin-5-yl)ethyl)amino)benzoic acid]	2.04	6.95	0.325	21.4
Cc1cc(C(C)Nc2ccccc2C(=O)O)c2cc(-c3ccc(CN4CCOCC4)nc3)n(C)c(=O)c2c1 (centres unmarked) [Example 78, 2-((1-(2,7-dimethyl-3-(6-(morpholinomethyl)pyridin-3-yl)-1-oxo-1,2-dihydroisoquinolin-5-yl)ethyl)amino)benzoic acid]	> 10	65.9	2.21	29.7
Cc1cc(C(C)Nc2ccccc2C(=O)O)c2cc(-c3ccc(P(C)(C)=O)cc3)n(C)c(=O)c2c1 (centres unmarked) [Example 79, 2-((1-(3-(4-(dimethylphosphoryl)phenyl)-2,7-dimethyl-1-oxo-1,2-dihydroisoquinolin-5-yl)ethyl)amino)benzoic acid]	> 10	59.2	2.42	24.4
Cc1cc(C(C)Nc2ccccc2C(=O)O)c2cc(C#Cc3cnn(C)c3)n(C)c(=O)c2c1 (centres unmarked) [Example 80, 2-((1-(2,7-dimethyl-3-((1-methyl-1H-pyrazol-4-yl)ethynyl)-1-oxo-1,2-dihydroisoquinolin-5-yl)ethyl)amino)benzoic acid]	3.08	3.28	0.304	10.8
CCn1c(-c2ccc(F)cc2)cc2c(C(C)Nc3ccc(Cl)nc3C(=O)O)cc(C)cc2c1=O (centres unmarked) [Example 81, 6-chloro-3-((1-(2-ethyl-3-(4-fluorophenyl)-7-methyl-1-oxo-1,2-dihydroisoquinolin-5-yl)ethyl)amino)picolinic acid]	1.87	3.78	0.215	17.6
Cc1cc(C(C)Nc2ccccc2S(C)(=O)=O)c2cc(-c3ccccc3)n(C)c(=O)c2c1 (centres unmarked) [Example 82, 2,7-dimethyl-5-(1-((2-(methylsulfonyl)phenyl)amino)ethyl)-3-phenylisoquinolin-1(2H)-one]	2.02	3.31	0.549	6.0
Cc1cc(C(C)Nc2ccccc2C(=O)O)c2cc(-c3ccc(N4CCCC4)cc3)n(C)c(=O)c2c1 (centres unmarked) [Example 84, 2-((1-(2,7-dimethyl-1-oxo-3-(4-(pyrrolidin-1-yl)phenyl)-1,2-dihydroisoquinolin-5-yl)ethyl)amino)benzoic acid]	3.12	14.6	0.242	60.4
Cc1cc(C(C)Nc2ccccc2C(=O)O)c2cc(-c3ccc(C(F)(F)F)nc3)n(C)c(=O)c2c1 (centres unmarked) [Example 86, 2-((1-(2,7-dimethyl-1-oxo-3-(6-(trifluoromethyl)pyridin-3-yl)-1,2-dihydroisoquinolin-5-yl)ethyl)amino)benzoic acid]	> 10	15.1	0.575	26.3
Cc1cc(C(C)Nc2ccccc2C(=O)O)c2cc(-c3cnn(CC45CC6C[C@H](C4)C[C@H](C6)C5)c3C)n(C)c(=O)c2c1 (stereo partly drawn) [Example 87, 2-((1-(3-(1-(((3S,5S)-adamantan-1-yl)methyl)-5-methyl-1H-pyrazol-4-yl)-2,7-dimethyl-1-oxo-1,2-dihydroisoquinolin-5-yl)ethyl)amino)benzoic acid]	2.84	35.4	1.5	23.5
Cc1cc(C(C)Nc2ccccc2C(=O)O)c2cc(C#Cc3ccn(C)n3)n(C)c(=O)c2c1 (centres unmarked) [Example 88, 2-((1-(2,7-dimethyl-3-((1-methyl-1H-pyrazol-3-yl)ethynyl)-1-oxo-1,2-dihydroisoquinolin-5-yl)ethyl)amino)benzoic acid]	1.94	1.75	0.152	11.5
Cc1cc(C(C)Nc2ccccc2C(=O)O)c2cc(C#CC3(O)CCCC3)n(C)c(=O)c2c1 (centres unmarked) [Example 89, 2-((1-(3-((1-hydroxycyclopentyl)ethynyl)-2,7-dimethyl-1-oxo-1,2-dihydroisoquinolin-5-yl)ethyl)amino)benzoic acid]	6.84	6.84	0.158	43.3
Cc1cc(C(C)Nc2ccccc2C(=O)O)c2cc(C#Cc3cnn(-c4ccccc4)c3)n(C)c(=O)c2c1 (centres unmarked) [Example 94, 2-((1-(2,7-dimethyl-1-oxo-3-((1-phenyl-1H-pyrazol-4-yl)ethynyl)-1,2-dihydroisoquinolin-5-yl)ethyl)amino)benzoic acid]	> 10	> 100	0.387	>258
Cc1cc(C(C)Nc2ccccc2C(=O)O)c2cc(-c3ccc(F)cc3)n(C3COC3)c(=O)c2c1 (centres unmarked) [Example 95, 2-((1-(3-(4-fluorophenyl)-7-methyl-2-(oxetan-3-yl)-1-oxo-1,2-dihydroisoquinolin-5-yl)ethyl)amino)benzoic acid]	1.36	4.33	0.091	47.6
Cc1cc(C(C)Nc2ccccc2C(=O)O)c2cc(-c3ccc(F)cc3)n(C3CCOCC3)c(=O)c2c1 (centres unmarked) [Example 96, 2-((1-(3-(4-fluorophenyl)-7-methyl-1-oxo-2-(tetrahydro-2H-pyran-4-yl)-1,2-dihydroisoquinolin-5-yl)ethyl)amino)benzoic acid]	9.52	72	0.91	79.1
Cc1cc(C(C)Nc2ccncc2C(=O)O)c2cc(-c3ccc(F)cc3)n(C)c(=O)c2c1 (centres unmarked) [Example 97, 4-((1-(3-(4-fluorophenyl)-2,7-dimethyl-1-oxo-1,2-dihydroisoquinolin-5-yl)ethyl)amino)nicotinic acid]	> 10	> 100	> 100	–
